Where two headings read alike, the source gives them in different places.
Key:
[1] = test system: Salmonella typhimurium TA102; test: Ames assay (dark mutagenicity), strain TA102; settings: TA102 at 500 μg/plate
From the text: (§1) The second property that is important in testing a compound for use in methods of the present invention is mutagenicity. The most widely used mutagen/carcinogen screening assay is the Ames test. This assay is described by D. M. Maron and B. N. Ames in Mutation Research 113: 173 ( 1983) and a specific screen is described in detail in Example 17, below. The Ames test utilizes several unique strains of Salmonella typhimurium that are histidine- dependent for growth and that lack the usual DNA repair enzymes. The frequency of normal mutations that render the bacteria independent of histidine (i.e., the frequency of spontaneous revertants) is low. The test allows one to evaluate the impact of a compound on this revertant frequency.
(§2) In this example the compounds of the present invention are tested for their dark mutagenicity using an Ames assay. The procedures used for the Salmonella mutagenicity test as described in detail by Maron and Ames were followed exactly. Maron, D. M. and B. N. Ames, Mutation Research 113: 173 ( 1983). A brief description for each procedure is given here. The tester strains TA97a, TA98, TA100, TA102, TA1537 and TA1538 were obtained from Dr. Ames. TA97a, TA98, TA1537 and TA1538 are frameshift tester strains. TA100 and TA102 are base-substitution tester strains. Upon receipt each strain was cultured under a variety of conditions to confirm the genotypes specific to the strains.
(§3) The first tests done with the strains were to determine the range of spontaneous reversion for each of the strains. With each mutagenicity experiment the spontaneous reversion of the tester strains to histidine independence was measured and expressed as the number of spontaneous revertants per plate. This served as the background controls.
(§4) For all experiments, the pre-incubation procedure was used. In this procedure one vial of each tester strain was thawed and 20 μL of this culture was added to 6 mL of Oxoid Nutrient Broth #2. This solution was allowed to shake for 10 hours at 37° C. In the pre-incubation procedure, 0.1 mL of this overnight culture was added to each of the required number of sterile test tubes. To half of the tubes 0.5 mL of a 10% S-9 solution containing Aroclor 1254 induced rat liver extract (Molecular Toxicology Inc., Annapolis, Md.), and MgCl2, KCl, glucose-6-phosphate, NADP, and sodium phosphate buffer (Sigma, St. Louis, Mo.) were added. To the other half of the tubes 0.5 mL of 0.2M sodium phospate buffer, pH 7.4, was used in place of the S-9 mixture (the -S9 samples). Finally 0.1 mL of the test solution containing either 0, 0.1, 0.5, 1, 5, 10, 50, 100, 250, or 500 μg/mL of the test compound was added. The 0.7 mL mixture was vortexed and then pre-incubated while shaking for 20 minutes at 37° C. After shaking, 2 mL of molten top agar supplemented with histidine and biotin were added to the 0.7 mL mixture and immediately poured onto a minimal glucose agar plate (volume of base agar was 20 mL). The top agar was allowed 30 minutes to solidify and then the plates were inverted and incubated for 44 hours at 37° C. After incubation the number of revertant colonies on each plate were counted. […] (“n” represents the number of replicates performed for each data point.)
(§5) Maron and Ames (1983) describe the conflicting views with regard to the statisical treatment of data generated from the test.

[2] = test system: Salmonella typhimurium TA100
From the text: as §1, §2, §3, §4, §5

[3] = test system: Salmonella tester strains TA97a, TA98, TA100, TA102, TA1537 and TA1538; test: Ames assay, overall assessment over the tester strains; settings: strains tested: TA100 and TA1538, ±S9, 5 and 10 μg/plate
From the text: as §1, §2, §3
For all experiments, the pre-incubation procedure was used. In this procedure one vial of each tester strain was thawed and 20 μL of this culture was added to 6 mL of Oxoid Nutrient Broth #2. This solution was allowed to shake for 10 hours at 37° C. In the pre-incubation procedure, 0.1 mL of this overnight culture was added to each of the required number of sterile test tubes. To half of the tubes 0.5 mL of a 10% S-9 solution containing Aroclor 1254 induced rat liver extract (Molecular Toxicology Inc., Annapolis, Md.), and MgCl2, KCl, glucose-6-phosphate, NADP, and sodium phosphate buffer (Sigma, St. Louis, Mo.) were added. To the other half of the tubes 0.5 mL of 0.2M sodium phospate buffer, pH 7.4, was used in place of the S-9 mixture (the -S9 samples). Finally 0.1 mL of the test solution containing either 0, 0.1, 0.5, 1, 5, 10, 50, 100, 250, or 500 μg/mL of the test compound was added. […] After incubation the number of revertant colonies on each plate were counted. […]

[4] = test system: Salmonella typhimurium TA1538; test: Ames assay (dark mutagenicity), strain TA1538
From the text: as §1, §2, §3, §4, §5

R17 = R17 bacteriophage inactivation assay (r-17 screen); type: cell-based, bacteriophage R17 (grown in Hfr 3000 bacteria)
Description: An r-17 bacteriophage assay was used in this example to predict pathogen inactivation efficiency and to determine nucleic acid binding of the photoreactive binding compounds of the present invention. In the r-17 assay, the bacteriophage was placed in a solution with each compound tested and was then irradiated. The ability of the phage to subsequently infect bacteria and inhibit their growth was measured. The bacteriophage was selected for its relatively accessible nucleic acid such that the culture growth inhibition would accurately reflect nucleic acid damage by the test compounds. The bacteriophage assay for nucleic acid binding to test compounds offers a safe and inexpensive procedure to identify compounds likely to display efficient pathogen inactivation.
The R17 was grown up in Hfr 3000 bacteria, approximate titer 5 ×10^11. (R17 and Hfr 3000 were obtained from American Tissue Culture Collection (ATCC), Washington, D.C.) The R17 phage stock was added to a solution of 15% fetal bovine serum in Dulbecco's Modified Eagles Medium (DMEM) to a final phage concentration of 10^9/mL. An aliquot (0.5 mL) was transferred to a 1.5 mL snap-top polyethylene tube. An aliquot (0.004-0.040 mL) of the test compound stock solution prepared in water, ethanol or dimethylsulfoxide at 0.80-8.0 mM was added to the tube. Compounds were tested at concentrations between 4 μM and 320 μM. […] The tubes were placed in a light device as described in EXAMPLE 1 and irradiated for between 1 and 10 minutes. Sterile 13 mL dilution tubes were prepared; each test compound required one tube with 0.4 mL of Luria broth (LB) and five tubes containing 0.5 mL of LB broth. To make the dilutions, a 0.100 mL aliquot of the irradiated solution of phage and test compound was added to the first dilution tube of 0.4 mL of media then 0.020 mL of this solution was added to the second tube of 0.5 mL medium (1:25). The second solution was then diluted serially (1:25) into the remaining tubes. To each diluted sample was added 0.050 mL of Hfr 3000 bacteria cultured overnight and 3 mL of molten LB top agar and the mixed materials were poured onto LB broth plates. After the top agar hardened, the plates were incubated at 37° C. overnight. The plaque forming units were then counted the following morning and the titer of the phage remaining after phototreatment was calculated based on the dilution factors.
The following controls were run: the “phage only” in which phage was not treated with test compound and not irradiated (listed as “starting titer” in the tables below); the “UV only” in which the phage was irradiated in the absence of test compound; and the “dark” control in which the phage/test compound solution was not irradiated before it was diluted and plated.
Compounds of the present invention were also tested at a constant concentration for varying doses of UV light. Three sets of 1.5 mL tubes were prepared containing 0.6 mL aliquots of R17 in DMEM (prepared as described above). The compound tested was added at the desired concentration and the samples were vortexed. The samples were then irradiated at intervals of 1.0 J/cm^2, until 3.0 J/cm^2 was reached. Between each 1.0 J/cm^2 interval, 100 μL was removed from each sample and placed in the first corresponding dilution tube, then five sequential dilutions were performed for each compound tested, at all 3 irradiation doses, as described above in this example.
Then 50 μL of Hfr 3000 bacteria was added to each tube, 3 mL of top agar was added and the tube contents were vortexed. The contents of each tube was poured into its own LB plate and the plates were incubated overnight at 37° C. Plaques were counted by visual inspection the following morning.

[5] = test system: Duck Hepatitis B Virus (DHBV); test: Inactivation of DHBV in platelet concentrate, PCR amplification readout; settings: 5J/CM^2 UVA
Description: This example describes the protocol for inactivation of Duck Hepatitis B Virus (DHBV), a model for Hepatitis B Virus, using compounds of the present invention. DHBV in duck yolk was added to platelet concentrate (PC) to a final concentration of 2×10^7 particles per mL and mixed by gentle rocking for ≧15 min. […] Samples, including controls without added psoralen, were irradiated with 5J/CM^2 UVA, with mixing at 1 J/cm^2 increments. After irradiation, leukocytes and platelets were separated from virus by centrifugation. […] Samples were extracted with phenol-chloroform and chloroform, followed by ethanol precipitation. […] PCR amplicons were generated using primers pairs DCD03/DCD05 (127 bp), DCD03/DCD06 (327 bp) and DCD03/DCD07 (1072 bp). PCR was performed in a standard PCR buffer containing 0.2 mM each deoxyribonucleoside 5′-triphosphates (dATP, dGTP, dCTP, and dTTP), […], and 0.5 units Taq polymerase per […]. 30 cycles of amplification were performed with the following thermal profile: 95° C. 30 sec, 60° C. 30 sec, 72° C. 1 min. The amplification was followed by a 7 min incubation at 72° C. to yield full length products. […] was added at an amount of […] in order to detect and quantify the resulting products. Products were separated by electrophoresis on denaturing polyacrylamide slab gels and counted. The absence of signal in a given reaction was taken to indicate effective inactivation of DHBV.

[6] = test system: Chinese hamster ovary (CHO) cells; test: In vitro genotoxicity screen in CHO cells; type: cell-based; settings: approximately 3 hours exposure in the dark, dilutions 1-1000 μg/ml
From the text: The positive control was methylmethane sulfonate.
Coverslips were mounted with Permount.

**Q.** With `COc1c2occc2cc2ccc(=O)oc12` [Compound 8-MOP, 8-Methoxypsoralen] as the molecule, how does the mutagenic response detected [1] read?
**A.** weak base-substitution mutagen

**Q.** With `Cc1oc2c(C)c3oc(=O)cc(C)c3cc2c1COCCCN` [Compound 4, 4′-(5-amino-2-oxa)pentyl-4,5′,8-trimethylpsoralen] as the molecule, how does the revertants per plate ([2]; TA100 +S9, 5 μg/plate) read?
**A.** −10

**Q.** What about the revertants per plate ([2]; TA100 +S9, 10 μg/plate) of the same molecule?
**A.** −3

**Q.** And the “mutagenicity (overall)” value [3]?
**A.** no mutagenicity

**Q.** And the revertants per plate ([4]; TA1538 −S9, 5 μg/plate)?
**A.** −2

**Q.** And the revertants per plate ([4]; TA1538 −S9, 10 μg/plate)?
**A.** −2

**Q.** With `Cc1oc2c(C)c3oc(=O)cc(C)c3cc2c1CNCCN` [Compound 1, 4′-(4-amino-2-aza)butyl-4,5′,8-trimethylpsoralen] as the molecule, how does the revertants per plate ([2]; TA100 +S9, 5 μg/plate) read?
**A.** −24

**Q.** What about the revertants per plate ([2]; TA100 +S9, 10 μg/plate) of the same molecule?
**A.** −22

**Q.** What about the “mutation in the TA100 strain” value ([2]; TA100, with and without S9) of the same molecule?
**A.** displayed mutation in the TA100 strain, but only in the absence of S9

**Q.** And the “R17 inactivation efficiency compared with 8-MOP” value (R17; 32 μM, 1 minute irradiation)?
**A.** much higher R17 inactivation efficiency than does 8-MOP

**Q.** And the “LOG TITER” value (R17; experiment 1, 32 μM cmpd, 1′ uva, phage only titer 7.7)?
**A.** <1 log

**Q.** What about the “LOG TITER” value (R17; experiment 1, 32 μM cmpd, 10′ uva, phage only titer 7.7) of the same molecule?
**A.** <1 log

**Q.** And the “LOG TITER” value (R17; experiment 1, compound only (32 μM), no uva, phage only titer 7.7)?
**A.** 7.6 log

**Q.** What about the “LOG TITER” value (R17; experiment 2, 3.2 μM cmpd, 1′ uva, phage only titer 7.8) of the same molecule?
**A.** 6.9 log

**Q.** What about the “LOG TITER” value (R17; experiment 2, 3.2 μM cmpd, 10′ uva, phage only titer 7.8) of the same molecule?
**A.** 6.1 log

**Q.** And the “LOG TITER” value (R17; experiment 2, compound only (3.2 μM), no uva, phage only titer 7.8)?
**A.** 7.7 log

**Q.** What about the “LOG TITER” value (R17; experiment 3, 4 μM cmpd, 1′ uva, phage only titer 7.3) of the same molecule?
**A.** 6.3 log

**Q.** What about the “LOG TITER” value (R17; experiment 3, 8 μM cmpd, 1′ uva, phage only titer 7.3) of the same molecule?
**A.** 5.6 log

**Q.** What about the “LOG TITER” value (R17; experiment 3, 16 μM cmpd, 1′ uva, phage only titer 7.3) of the same molecule?
**A.** 3.9 log

**Q.** What about the “LOG TITER” value (R17; experiment 3, compound only (16 μM), no uva, phage only titer 7.3) of the same molecule?
**A.** 7.3 log

**Q.** And the mutagenic response detected ([4]; TA1538 at 5 μg/plate in the presence of S9)?
**A.** weak frameshift mutagen

**Q.** And the revertants per plate ([4]; TA1538 −S9, 5 μg/plate)?
**A.** 10

**Q.** What about the revertants per plate ([4]; TA1538 −S9, 10 μg/plate) of the same molecule?
**A.** 12

**Q.** For `Cc1oc2c(C)c3oc(=O)cc(C)c3cc2c1COCCN` [Compound S-59], which “PCR amplification of the 1072 bp DHBV amplicon” value ([5]; all concentrations (35, 70, and 100 mM)) is on record?
**A.** complete inhibition of PCR

**Q.** And the “inhibition of PCR of the smaller DHBV amplicons (127 bp, 327 bp) compared with AMT” value ([5]; same concentrations)?
**A.** inhibited PCR of the smaller amplicons better than did AMT

**Q.** Which “genotoxic (toxic) concentration” value [6] does the source give for `Cc1oc2c(CN)c3oc(=O)cc(C)c3cc2c1C` [8-aminomethyl-4,4′, 5′-trimethylpsoralen, reference compound] here?
**A.** 10 µg/mL

From patent US6469052B2, “Compounds for the photodecontamination of pathogens in blood” (Cerus Corporation, priority 1993, dated 2002)
